Data set [1] concerns A549 cells stably transfected with a reporter gene containing the NF-κB responsive elements from the ELAM gene promoter coupled to sPAP. Briefly: Functional in vitro assay of glucocorticoid agonist activity (NF-κB/ELAM-sPAP reporter, TNF stimulated). In kind it is cell-based. To be noted: compound 1 hour at 37° C., then TNF 10 ng/ml for 16 hours. The method, then:
Pharmacological activity was assessed in a functional in vitro assay of glucocorticoid agonist activity which is generally predictive of anti-inflammatory or anti-allergic activity in vivo.
The functional assay was based on that described by K. P. Ray et al., Biochem J. (1997), 328, 707-715. A549 cells stably transfected with a reporter gene containing the NF-κB responsive elements from the ELAM gene promoter coupled to sPAP (secreted alkaline phosphatase) were treated with test compounds at appropriate doses for 1 hour at 37° C. The cells were then stimulated with tumour necrosis factor (TNF, 10 ng/ml) for 16 hours, at which time the amount of alkaline phosphatase produced is measured by a standard colourimetric assay. Dose response curves were constructed from which EC50 values were estimated.

A further data set has as its system Balb/c mice. Briefly: Oxazolone induced contact hypersensitivity model (ear swelling). In kind it is in vivo. The note with it: topical to right ear 1 hour prior to and 3 hours post oxazolone challenge; ear thickness 24 hours post challenge. As for the experimental part:
Pharmacological activity in vivo was assessed using an oxazolone induced contact hypersensitivity model in Balb/c mice similar to that described by Cumberbatch et al., Immunology (2002), 105, 466-477.
Balb/c female mice (18-20 g) were sensitised to oxazolone by the addition of 50 μl to the shaved right flank, of 2.5% oxazolone in acetone:olive oil (4:1). Control (unsensitised) mice were dosed with acetone:olive oil. Five days later all mice were challenged by the addition of 25 μl of 0.25% oxazolone in acetone olive oil (4:1) to the dorsal surface of both ears under isoflourane anaesthesia. 10 μl of solution of test compound at the appropriate concentration or vehicle (absolute ethanol) was applied to the dorsal surface of the right ear 1 hour prior to and 3 hours post oxazolone challenge under isoflourane anaesthesia. The left ear remained untreated to allow assessment of systemic exposure. Ear thickness measurements were taken using an engineer's micrometer prior to the addition of steroid and again 24 hours post oxazolone challenge. Results expressed as the percentage inhibition of ear swelling, from which EC50 values were calculated.

Another data set concerns Male CD rats. Briefly: Rat model of thymus involution (systemic steroid effects). It counts as in vivo. The note with it: daily for 3 days. As for the experimental part: Systemic steroid effects were assessed in a rat model of thymus involution. Male CD rats were dosed intra-tracheally daily for 3 days with saline vehicle (20 μl Tween 80 in 100 ml saline) or with a suspension of test compound (dose volume 200 μL). On day 4 the animals were culled and the thymus removed and weighed.

A short description of data set [2]: Hydrolysis in human plasma. In kind it is in vitro ADME. The note with it: 37°, 5 μg/ml, LC-MS/MS. As for the experimental part: Compounds were incubated at 37° in human plasma at a concentration of 5 μg/ml. Aliquots were taken at time 0 and every 30 seconds for the next 10 minutes and were extracted by protein precipitation and analysed by LC-MS/MS.

The term EC50 denotes the concentration needed to bring the measured effect to its halfway point. Higher therefore signals a need for much substance. The compound `CC1CC2C3CC(F)C4=CC(=O)C=CC4(C)C3(F)C(O)CC2(C)C1(OC(=O)c1cc(Cl)sc1Cl)C(=O)SC1CCOC1=O` (stereo not drawn) [Example 15, 17α-[(2,5-Dichlorothiophene-3-carbonyl)oxy]-6α,9α-difluoro-11β-hydroxy-16α-methyl-3-oxo-androsta-1,4-diene-17β-carbothioic acid S-(2-oxo-tetrahydro-furan-3S-yl)ester] showed an EC50 in data set [1] of 0.016 µM.
The half-life is the time in which the quantity being followed falls by half. The low end stands for rapid decline, the high end for slow decline. As for `C[C@@H]1C[C@H]2[C@@H]3C[C@H](F)C4=CC(=O)C=C[C@]4(C)[C@@]3(F)[C@@H](O)C[C@]2(C)[C@@]1(OC(=O)c1ccco1)C(=O)S[C@H]1CCOC1=O` [Example 1, 6α,9α-Difluoro-17α-[(2-furanylcarbonyl)oxy]-11β-hydroxy-16α-methyl-3-oxo-androsta-1,4-diene-17β-carbothioic acid S-(2-oxo-tetrahydro-furan-3S-yl)ester], the “EC50 (inhibition of ear swelling)” value with Balb/c mice is 0.3 µg. The “effect on thymus weight” value in the data set with Male CD rats (1000 μg/day intra-tracheally) is “no effect”. The half-life in data set [2] is given as 1.2 min.
For the compound `CCCC1O[C@@H]2C[C@H]3[C@@H]4CCC5=CC(=O)C=C[C@]5(C)[C@H]4[C@@H](O)C[C@]3(C)[C@]2(C(=O)CO)O1` (stereo partly shown) [budesonide, reference compound], in the data set on Male CD rats (100 mg/day intra-tracheally), the “reduction in thymus weight” value worked out at 65%.
Compound `Cc1noc(C)c1C(=O)OC1(C(=O)SC2CCOC2=O)C(C)CC2C3CC(F)C4=CC(=O)C=CC4(C)C3(F)C(O)CC21C` (stereo not drawn) [Example 11, 6α,9α-Difluoro-17α-[(3,5-dimethylisoxazole-4-carbonyl)oxy]-11β-hydroxy-16α-methyl-3-oxo-androsta-1,4-diene-17β-carbothioic acid S-(2-oxo-tetrahydro-furan-3S-yl)ester] registered an EC50 in data set [1] of 0.028 µM.
In data set [1], `COc1c(C(=O)OC2(C(=O)SC3CCOC3=O)C(C)CC3C4CC(F)C5=CC(=O)C=CC5(C)C4(F)C(O)CC32C)csc1Cl` (stereo not drawn) [Example 12, 17α-[(5-Chloro-4-methoxy-thiophene-3-carbonyl)oxy]-6α,9α-difluoro-11β-hydroxy-16α-methyl-3-oxo-androsta-1,4-diene-17β-carbothioic acid S-(2-oxo-tetrahydro-furan-3S-yl)ester] registered an EC50 of 0.04 µM.

For the origin of these results see US7405206B2, “Anti-inflammatory androstane derivatives” (Glaxo Group Limited, priority 2001, dated 2008).
